Source: PubChem BioAssay AID2060894 (Molecular Pharmacology Branch, DTP, NCI, 2025)
Values belong to the compound of their own block, whether it stands above or below them.

Tested on: K12877-001-R-J1-PDC complex spheroid viability
Assay: Anticancer human tumor K12877-001-R-J1-PDC patient-derived lung adenocarcinoma cell line growth inhibition [RAS]
Details: for IC50: curve of first compound; for viability, T/C: stronger effect = lower value
Procedure, shortened: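 Multi-cell-type spheroids: tumor cells plus HUVEC endothelial cells and mesenchymal stem cells. RAS-pathway inhibitors were combined with targeted agents, each dosed in half-log steps down from clinical Cmax, or from 10 microM when Cmax was unknown.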

[1] = second compound 0.000949 µM, first compound 0.0316 µM
[2] = second compound 0.000949 µM, first compound 0.1 µM
[3] = second compound 0.000949 µM, first compound 0.316 µM
[4] = second compound 0.000949 µM, first compound 1 µM
[5] = second compound 0.000949 µM, first compound 3.16 µM
[6] = second compound 0.000949 µM, first compound 10 µM
[7] = second compound 0.003 µM, first compound 0.0316 µM
[8] = second compound 0.003 µM, first compound 0.1 µM
[9] = second compound 0.003 µM, first compound 0.316 µM
[10] = second compound 0.003 µM, first compound 1 µM
[11] = second compound 0.003 µM, first compound 3.16 µM
[12] = second compound 0.003 µM, first compound 10 µM
[13] = second compound 0.00949 µM, first compound 0.0316 µM
[14] = second compound 0.00949 µM, first compound 0.1 µM
[15] = second compound 0.00949 µM, first compound 0.316 µM
[16] = second compound 0.00949 µM, first compound 1 µM
[17] = second compound 0.00949 µM, first compound 3.16 µM
[18] = second compound 0.00949 µM, first compound 10 µM
[19] = second compound 0.03 µM, first compound 0.0316 µM
[20] = second compound 0.03 µM, first compound 0.1 µM
[21] = second compound 0.03 µM, first compound 0.316 µM
[22] = second compound 0.03 µM, first compound 1 µM
[23] = second compound 0.03 µM, first compound 3.16 µM
[24] = second compound 0.03 µM, first compound 10 µM
[25] = second compound 0.0949 µM, first compound 0.0316 µM
[26] = second compound 0.0949 µM, first compound 0.1 µM
[27] = second compound 0.0949 µM, first compound 0.316 µM
[28] = second compound 0.0949 µM, first compound 1 µM
[29] = second compound 0.0949 µM, first compound 3.16 µM
[30] = second compound 0.0949 µM, first compound 10 µM
[31] = second compound 0.3 µM, first compound 0.0316 µM
[32] = second compound 0.3 µM, first compound 0.1 µM
[33] = second compound 0.3 µM, first compound 0.316 µM
[34] = second compound 0.3 µM, first compound 1 µM
[35] = second compound 0.3 µM, first compound 3.16 µM
[36] = second compound 0.3 µM, first compound 10 µM
[37] = second compound 0.000949 µM, first compound 0.00316 µM
[38] = second compound 0.000949 µM, first compound 0.01 µM
[39] = second compound 0.003 µM, first compound 0.00316 µM
[40] = second compound 0.003 µM, first compound 0.01 µM
[41] = second compound 0.00949 µM, first compound 0.00316 µM
[42] = second compound 0.00949 µM, first compound 0.01 µM
[43] = second compound 0.03 µM, first compound 0.00316 µM
[44] = second compound 0.03 µM, first compound 0.01 µM
[45] = second compound 0.0949 µM, first compound 0.00316 µM
[46] = second compound 0.0949 µM, first compound 0.01 µM
[47] = second compound 0.3 µM, first compound 0.00316 µM
[48] = second compound 0.3 µM, first compound 0.01 µM
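Further: spheroids exposed to agents for one week before readout.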
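Wherever viability, T/C is given: tumour cells co-cultured with HUVEC and mesenchymal stem cells in spheroids.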

IC50 (second compound 0.000949 µM): 1260 nM | IC50 (second compound 0.003 µM): 1280 nM | IC50 (second compound 0.00949 µM): 1430 nM | IC50 (second compound 0.03 µM): 956 nM | IC50 (second compound 0.0949 µM): 488 nM | IC50 (second compound 0.3 µM): 170 nM
Compound: CC(C)NCC(C(=O)N1CCN(c2ncnc3c2C(C)CC3O)CC1)c1ccc(Cl)cc1 (stereo not drawn) + CCn1c(-c2cccnc2C(C)OC)c2c3cc(ccc31)N1CCOC(CC(NC(=O)C(C(C)C)N(C)C(=O)C3(F)CCN(C(=O)C#CC(C)(C)N(C)C)CC3)C(=O)N3CCCC(N3)C(=O)OCC(C)(C)C2)C1
viability, T/C [1]: 88.5% | viability, T/C [2]: 76.6% | viability, T/C [3]: 80.5% | viability, T/C [4]: 55.5% | viability, T/C [5]: 26.7% | viability, T/C [6]: 18.3% | viability, T/C [7]: 80.6% | viability, T/C [8]: 88% | viability, T/C [9]: 67.1% | viability, T/C [10]: 60.6% | viability, T/C [11]: 26.5% | viability, T/C [12]: 19.6% | viability, T/C [13]: 78.5% | viability, T/C [14]: 68.5% | viability, T/C [15]: 82.8% | viability, T/C [16]: 58.7% | viability, T/C [17]: 27.9% | viability, T/C [18]: 16% | viability, T/C [19]: 75.7% | viability, T/C [20]: 68.9% | viability, T/C [21]: 81.6% | viability, T/C [22]: 49% | viability, T/C [23]: 26.8% | viability, T/C [24]: 15.9% | viability, T/C [25]: 72.7% | viability, T/C [26]: 73.5% | viability, T/C [27]: 51.8% | viability, T/C [28]: 41.5% | viability, T/C [29]: 23.1% | viability, T/C [30]: 12.1% | viability, T/C [31]: 57.8% | viability, T/C [32]: 52.8% | viability, T/C [33]: 46.3% | viability, T/C [34]: 23.5% | viability, T/C [35]: 19% | viability, T/C [36]: 10.6%

IC50 (second compound 0.000949 µM): 9.24 nM | IC50 (second compound 0.003 µM): 6.95 nM | IC50 (second compound 0.00949 µM): 8.2 nM | IC50 (second compound 0.03 µM): 6.3 nM | IC50 (second compound 0.0949 µM): 3.56 nM | IC50 (second compound 0.3 µM): 1.37 nM
Compound: CC(C)n1nc(-c2ccc3oc(N)nc3c2)c2c(N)ncnc21 + CCn1c(-c2cccnc2C(C)OC)c2c3cc(ccc31)N1CCOC(CC(NC(=O)C(C(C)C)N(C)C(=O)C3(F)CCN(C(=O)C#CC(C)(C)N(C)C)CC3)C(=O)N3CCCC(N3)C(=O)OCC(C)(C)C2)C1
viability, T/C (second compound 0.000949 µM, first compound 0.000316 µM): 81.6% | viability, T/C (second compound 0.000949 µM, first compound 0.001 µM): 81.3% | viability, T/C [37]: 78.2% | viability, T/C [38]: 47.4% | viability, T/C [1]: 18.7% | viability, T/C [2]: 11.9% | viability, T/C (second compound 0.003 µM, first compound 0.000316 µM): 77.6% | viability, T/C (second compound 0.003 µM, first compound 0.001 µM): 80.9% | viability, T/C [39]: 66.2% | viability, T/C [40]: 41.8% | viability, T/C [7]: 20.4% | viability, T/C [8]: 11% | viability, T/C (second compound 0.00949 µM, first compound 0.000316 µM): 77.5% | viability, T/C (second compound 0.00949 µM, first compound 0.001 µM): 76.9% | viability, T/C [41]: 63.4% | viability, T/C [42]: 50% | viability, T/C [13]: 16.2% | viability, T/C [14]: 8.87% | viability, T/C (second compound 0.03 µM, first compound 0.000316 µM): 69.3% | viability, T/C (second compound 0.03 µM, first compound 0.001 µM): 69.6% | viability, T/C [43]: 59.1% | viability, T/C [44]: 44% | viability, T/C [19]: 18.4% | viability, T/C [20]: 7.89% | viability, T/C (second compound 0.0949 µM, first compound 0.000316 µM): 68.7% | viability, T/C (second compound 0.0949 µM, first compound 0.001 µM): 61.4% | viability, T/C [45]: 50% | viability, T/C [46]: 37.8% | viability, T/C [25]: 12.2% | viability, T/C [26]: 7.05% | viability, T/C (second compound 0.3 µM, first compound 0.000316 µM): 65% | viability, T/C (second compound 0.3 µM, first compound 0.001 µM): 53.1% | viability, T/C [47]: 39.8% | viability, T/C [48]: 28.8% | viability, T/C [31]: 12.6% | viability, T/C [32]: 6.48%

IC50 (second compound 0.000949 µM): 931 nM | IC50 (second compound 0.003 µM): 472 nM | IC50 (second compound 0.00949 µM): 312 nM | IC50 (second compound 0.03 µM): 571 nM | IC50 (second compound 0.0949 µM): 172 nM | IC50 (second compound 0.3 µM): 81.7 nM
Compound: CC(Nc1ccc2c(c1)OCCn1cc(N3C(=O)OCC3C(F)F)nc1-2)C(N)=O (stereo not drawn) + CCn1c(-c2cccnc2C(C)OC)c2c3cc(ccc31)N1CCOC(CC(NC(=O)C(C(C)C)N(C)C(=O)C3(F)CCN(C(=O)C#CC(C)(C)N(C)C)CC3)C(=O)N3CCCC(N3)C(=O)OCC(C)(C)C2)C1
viability, T/C [1]: 73.5% | viability, T/C [2]: 69.8% | viability, T/C [3]: 55.3% | viability, T/C [4]: 51.5% | viability, T/C [5]: 37.5% | viability, T/C [6]: 19.3% | viability, T/C [7]: 74.8% | viability, T/C [8]: 66.8% | viability, T/C [9]: 48% | viability, T/C [10]: 40.3% | viability, T/C [11]: 44% | viability, T/C [12]: 19.2% | viability, T/C [13]: 76.6% | viability, T/C [14]: 53.7% | viability, T/C [15]: 50.7% | viability, T/C [16]: 43.6% | viability, T/C [17]: 34% | viability, T/C [18]: 22.3% | viability, T/C [19]: 65.8% | viability, T/C [20]: 62.9% | viability, T/C [21]: 55.2% | viability, T/C [22]: 44.8% | viability, T/C [23]: 30.5% | viability, T/C [24]: 16.1% | viability, T/C [25]: 66.8% | viability, T/C [26]: 52% | viability, T/C [27]: 44.6% | viability, T/C [28]: 34.4% | viability, T/C [29]: 28% | viability, T/C [30]: 13.4% | viability, T/C [31]: 65.5% | viability, T/C [32]: 41.2% | viability, T/C [33]: 35.7% | viability, T/C [34]: 28.1% | viability, T/C [35]: 21.8% | viability, T/C [36]: 8.8%

IC50 (second compound 0.000949 µM): 300 nM | IC50 (second compound 0.003 µM): 239 nM | IC50 (second compound 0.00949 µM): 144 nM | IC50 (second compound 0.03 µM): 227 nM | IC50 (second compound 0.0949 µM): 129 nM | IC50 (second compound 0.3 µM): 58.7 nM
Compound: O=C(c1ccc(F)c(F)c1Nc1ccc(I)cc1F)N1CC(O)([C@@H]2CCCCN2)C1 + CCn1c(-c2cccnc2C(C)OC)c2c3cc(ccc31)N1CCOC(CC(NC(=O)C(C(C)C)N(C)C(=O)C3(F)CCN(C(=O)C#CC(C)(C)N(C)C)CC3)C(=O)N3CCCC(N3)C(=O)OCC(C)(C)C2)C1
viability, T/C [37]: 81.2% | viability, T/C [38]: 77.5% | viability, T/C [1]: 80.8% | viability, T/C [2]: 66.5% | viability, T/C [3]: 49.9% | viability, T/C [4]: 35.4% | viability, T/C [39]: 72.6% | viability, T/C [40]: 69.8% | viability, T/C [7]: 67.5% | viability, T/C [8]: 66.8% | viability, T/C [9]: 44.6% | viability, T/C [10]: 28.6% | viability, T/C [41]: 71.1% | viability, T/C [42]: 62.6% | viability, T/C [13]: 70.7% | viability, T/C [14]: 55.4% | viability, T/C [15]: 37.7% | viability, T/C [16]: 32.7% | viability, T/C [43]: 66.1% | viability, T/C [44]: 72.8% | viability, T/C [19]: 73.1% | viability, T/C [20]: 59% | viability, T/C [21]: 46.3% | viability, T/C [22]: 28.9% | viability, T/C [45]: 76.7% | viability, T/C [46]: 64.5% | viability, T/C [25]: 69.5% | viability, T/C [26]: 45.9% | viability, T/C [27]: 44.3% | viability, T/C [28]: 33.9% | viability, T/C [47]: 70% | viability, T/C [48]: 65.6% | viability, T/C [31]: 52.1% | viability, T/C [32]: 45.6% | viability, T/C [33]: 40.1% | viability, T/C [34]: 31%
